Data: PubChem BioAssay AID248 (DTP/NCI, 2004)
Toxic doses and inconclusive results are not listed. Cut-off read from the data, not from the text of the source: active = T/C of 150% or more; inactive = T/C below 125%.

Test system: L1210 leukemia ip in BDF1 mice, survival T/C
Assay: NCI In Vivo Anticancer Drug Screen. Data for tumor model L1210 Leukemia (intraperitoneal) in B6D2F1 (BDF1) mice
Details: endpoint: mean survival time, higher = longer survival
Summary of the method: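 Ratio derived from survival: compound-dosed mice over vehicle-dosed mice, all bearing a transplantable tumor.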

[1] = dose: 100.0 mg/kg/injection, schedule: Q04DX002 (ip), vehicle: saline with Tween-80
[2] = dose: 200.0 mg/kg/injection, schedule: Q04DX002 (ip), vehicle: saline with Tween-80
[3] = dose: 100.0 mg/kg/injection, schedule: Q04DX002 (ip), vehicle: saline
[4] = dose: 200.0 mg/kg/injection, schedule: Q04DX002 (ip), vehicle: saline
[5] = dose: 100.0 mg/kg/injection, schedule: Q01DX009 (ip), vehicle: Klucel (hydroxypropylcellulose) (HPC)
[6] = dose: 100.0 mg/kg/injection, schedule: Q04DX003 (ip), vehicle: Klucel (hydroxypropylcellulose) (HPC)
[7] = dose: 200.0 mg/kg/injection, schedule: Q01DX009 (ip), vehicle: Klucel (hydroxypropylcellulose) (HPC)
[8] = dose: 200.0 mg/kg/injection, schedule: Q04DX003 (ip), vehicle: Klucel (hydroxypropylcellulose) (HPC)
[9] = dose: 400.0 mg/kg/injection, schedule: Q04DX003 (ip), vehicle: Klucel (hydroxypropylcellulose) (HPC)
[10] = dose: 100.0 mg/kg/injection, schedule: Q01DX001 (ip), vehicle: saline
[11] = dose: 200.0 mg/kg/injection, schedule: Q01DX001 (ip), vehicle: saline
[12] = dose: 400.0 mg/kg/injection, schedule: Q01DX001 (ip), vehicle: saline
[13] = dose: 100.0 mg/kg/injection, schedule: Q04DX003 (ip), vehicle: saline
[14] = dose: 200.0 mg/kg/injection, schedule: Q04DX003 (ip), vehicle: saline

Measured: T/C

CCC(C)[P+](c1ccccc1)(c1ccccc1)c1ccccc1 (stereo not given)
inactive: dose: 3.75 mg/kg/injection, schedule: Q01DX001 (ip), vehicle: carboxymethylcellulose (CMC) 118 % of control | dose: 7.0 mg/kg/injection, schedule: Q01DX015 (ip), vehicle: carboxymethylcellulose (CMC) 118 % of control | dose: 7.5 mg/kg/injection, schedule: Q01DX001 (ip), vehicle: carboxymethylcellulose (CMC) 118 % of control | dose: 12.5 mg/kg/injection, schedule: Q04DX002 (ip), vehicle: Klucel (hydroxypropylcellulose) (HPC) 109 % of control | dose: 14.0 mg/kg/injection, schedule: Q01DX015 (ip), vehicle: carboxymethylcellulose (CMC) 120 % of control | dose: 15.0 mg/kg/injection, schedule: Q01DX001 (ip), vehicle: carboxymethylcellulose (CMC) 119 % of control | dose: 25.0 mg/kg/injection, schedule: Q04DX002 (ip), vehicle: Klucel (hydroxypropylcellulose) (HPC) 91 % of control

Cc1ccc2c(c1)C1(C)C=CC(=O)CC1O2 (stereo not given)
inactive: [1] 106 % of control | [2] 110 % of control | dose: 400.0 mg/kg/injection, schedule: Q04DX002 (ip), vehicle: saline with Tween-80 106 % of control

NC(N)=N/N=C(/C(=N\N=C(N)N)c1ccco1)c1ccco1
inactive: dose: 8.0 mg/kg/injection, schedule: Q01DX Z (oral), vehicle: methylcellulose (MC) 89 % of control | dose: 15.0 mg/kg/injection, schedule: Q01DX Z (ip), vehicle: methylcellulose (MC) 100 % of control | dose: 15.0 mg/kg/injection, schedule: Q01DX Z (oral), vehicle: methylcellulose (MC) 96 % of control | dose: 30.0 mg/kg/injection, schedule: Q01DX Z (oral), vehicle: methylcellulose (MC) 105 % of control

CSC(=O)C(C)(C)C
inactive: dose: 75.0 mg/kg/injection, schedule: Q01DX001 (ip), vehicle: saline 103 % of control | dose: 150.0 mg/kg/injection, schedule: Q01DX001 (ip), vehicle: saline 97 % of control

C[CH2][Ge]1([CH2]C)[CH2]CC2(C[CH2]1)NC(=O)N(CCCN(C)C)C2=O
inactive: [3] 100 % of control | [4] 105 % of control

Cc1ccc(-n2c(=S)[nH]c3ccccc3c2=O)cc1C
inactive: [5] 90 % of control | [6] 96 % of control | [7] 90 % of control | [8] 93 % of control | dose: 400.0 mg/kg/injection, schedule: Q01DX009 (ip), vehicle: Klucel (hydroxypropylcellulose) (HPC) 92 % of control | [9] 93 % of control

Cc1ccc(C)c(NS(=O)(=O)c2cc(Cl)c(Cl)cc2Cl)c1
inactive: [5] 98 % of control | [7] 96 % of control

CCC(COC(=O)c1ccc(N)cc1)NC(CC(C)C)CC(C)C (stereo not given)
inactive: dose: 75.0 mg/kg/injection, schedule: Q01DX001 (ip), vehicle: carboxymethylcellulose (CMC) 89 % of control | dose: 300.0 mg/kg/injection, schedule: Q01DX001 (ip), vehicle: carboxymethylcellulose (CMC) 91 % of control

Cc1ccc(N=C2CCCCC2Nc2ccc(C)cc2)cc1.[Cl][Zn][Cl] (stereo not given)
inactive: [10] 98 % of control | [11] 101 % of control | [12] 104 % of control

CCCCCOC(=O)Nc1ccc(OCC)cc1
inactive: dose: 100.0 mg/kg/injection, schedule: Q04DX002 (ip), vehicle: Klucel (hydroxypropylcellulose) (HPC) 105 % of control | dose: 200.0 mg/kg/injection, schedule: Q04DX002 (ip), vehicle: Klucel (hydroxypropylcellulose) (HPC) 101 % of control | dose: 400.0 mg/kg/injection, schedule: Q04DX002 (ip), vehicle: Klucel (hydroxypropylcellulose) (HPC) 105 % of control

CN1C2CCCC1CC(=O)NC2 (stereo not given)
inactive: dose: 15.0 mg/kg/injection, schedule: Q01DX001 (ip), vehicle: saline 107 % of control | dose: 15.0 mg/kg/injection, schedule: Q04DX002 (ip), vehicle: saline 101 % of control | dose: 30.0 mg/kg/injection, schedule: Q01DX001 (ip), vehicle: saline 106 % of control | dose: 30.0 mg/kg/injection, schedule: Q04DX002 (ip), vehicle: saline 101 % of control | dose: 60.0 mg/kg/injection, schedule: Q04DX002 (ip), vehicle: saline 108 % of control

NC(=O)c1ccc(NCc2cnc3nc(N)nc(N)c3n2)cc1
inactive: dose: 20.0 mg/kg/injection, schedule: Q01DX009 (ip), vehicle: Klucel (hydroxypropylcellulose) (HPC) 106 % of control | dose: 40.0 mg/kg/injection, schedule: Q01DX009 (ip), vehicle: Klucel (hydroxypropylcellulose) (HPC) 101 % of control | dose: 80.0 mg/kg/injection, schedule: Q01DX009 (ip), vehicle: Klucel (hydroxypropylcellulose) (HPC) 103 % of control

C[N+](C)(C)CCOC(=O)c1ccccc1CCl
inactive: [1] 98 % of control | [2] 102 % of control

CCOc1ccc(Cl)cc1Cl
inactive: [3] 109 % of control | [4] 113 % of control | dose: 400.0 mg/kg/injection, schedule: Q04DX002 (ip), vehicle: saline 106 % of control

Cc1cccc(NC(=O)OCCN(CCOC(=O)Nc2cccc(C)c2)Cc2ccccc2)c1
inactive: dose: 50.0 mg/kg/injection, schedule: Q01DX001 (ip), vehicle: carboxymethylcellulose (CMC) 90 % of control | dose: 100.0 mg/kg/injection, schedule: Q01DX001 (ip), vehicle: carboxymethylcellulose (CMC) 98 % of control | dose: 200.0 mg/kg/injection, schedule: Q01DX001 (ip), vehicle: carboxymethylcellulose (CMC) 104 % of control | dose: 400.0 mg/kg/injection, schedule: Q01DX001 (ip), vehicle: carboxymethylcellulose (CMC) 90 % of control

CCCC(=O)OCC1CC2C=CC1C2 (stereo not given)
inactive: dose: 222.0 mg/kg/injection, schedule: Q01DX Z (ip), vehicle: saline 100 % of control | dose: 333.0 mg/kg/injection, schedule: Q01DX Z (ip), vehicle: saline 102 % of control | dose: 500.0 mg/kg/injection, schedule: Q01DX Z (ip), vehicle: saline 112 % of control

ClCC/C(=C(/Cl)c1ccccc1)c1ccccc1
inactive: [6] 103 % of control | [8] 98 % of control | [9] 98 % of control

Cc1ccc(S(=O)(=O)N(C)c2cc(Cl)c(C#N)cc2Cl)cc1
inactive: [6] 97 % of control | [8] 97 % of control | [9] 100 % of control

C1CCC(OB2OB(OC3CCCCC3)OB(OC3CCCCC3)O2)CC1
inactive: dose: 50.0 mg/kg/injection, schedule: Q04DX003 (ip), vehicle: saline 93 % of control | [10] 93 % of control | dose: 100.0 mg/kg/injection, schedule: Q01DX009 (ip), vehicle: saline 97 % of control | [13] 98 % of control | [11] 98 % of control | dose: 200.0 mg/kg/injection, schedule: Q01DX009 (ip), vehicle: saline 110 % of control | [14] 103 % of control | [12] 86 % of control | dose: 400.0 mg/kg/injection, schedule: Q01DX009 (ip), vehicle: saline 111 % of control

COc1ccc(C(C)=O)cc1
inactive: dose: 100.0 mg/kg/injection, schedule: Q04DX002 (ip), vehicle: saline + alcohol 92 % of control | dose: 200.0 mg/kg/injection, schedule: Q04DX002 (ip), vehicle: saline + alcohol 96 % of control | dose: 400.0 mg/kg/injection, schedule: Q04DX002 (ip), vehicle: saline + alcohol 92 % of control

CC(NC(=O)/C=C\C(=O)O)c1ccccc1 (stereo not given)
inactive: [13] 92 % of control | [14] 102 % of control | dose: 400.0 mg/kg/injection, schedule: Q04DX003 (ip), vehicle: saline 103 % of control
